Reference: patent US8273738B2, “Imidazole derivatives” (priority 2006, dated 2012)
Like-named read-outs stand apart in the source and are kept apart here.

Assays:
CB2 receptor = target: T1, CB2 receptor (Rattus norvegicus, UniProt Q9QZN9); assay: Cannabinoid CB2 receptor-binding activity ([3H]CP55940 binding experiment), rat spleen membrane specimen
T1 construct: from tissue; host or cells: rat spleen membrane specimen
T1 sequence (Q9QZN9 1-360): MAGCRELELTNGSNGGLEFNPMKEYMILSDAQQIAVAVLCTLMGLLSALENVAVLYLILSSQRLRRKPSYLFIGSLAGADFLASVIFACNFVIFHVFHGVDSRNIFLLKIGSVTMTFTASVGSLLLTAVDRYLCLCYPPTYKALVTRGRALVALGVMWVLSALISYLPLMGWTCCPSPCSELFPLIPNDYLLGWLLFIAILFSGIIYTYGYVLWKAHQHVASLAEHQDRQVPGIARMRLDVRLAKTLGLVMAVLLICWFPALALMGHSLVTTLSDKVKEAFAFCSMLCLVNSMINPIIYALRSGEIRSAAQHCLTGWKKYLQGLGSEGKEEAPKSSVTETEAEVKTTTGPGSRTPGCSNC
Description: A test was carried out according to the method of Hillard et al. [The Journal of Pharmacology and Experimental Therapeutics, vol. 289, p. 1427 (1999)]. A rat forebrain membrane specimen and a rat spleen membrane specimen were prepared and used in a binding experiment for a CB1 receptor and a binding experiment for a CB2 receptor, respectively. The membrane specimen (forebrain: final concentration of 0.5 mg of protein/mL, spleen: final concentration of 2 mg of protein/mL) was incubated together with a test compound and [^3H]CP55940 (manufactured by PerkinElmer) ((−)-cis-3-[2-hydroxy-[3,5-^3H]-4-(1,1-dimethylheptyl)phenyl]-trans-4-(3-hydroxypropyl)cyclohexanol)) (final concentration: 0.5 nmol/L) in an assay buffer (50 mmol/L Tris-HCl buffer (pH 7.4), 1 mmol/L EDTA and 3 mmol/L MgCl2) containing 0.1% bovine serum albumin at 25° C. for 1 hour, and the resulting mixture was filtered using a glass filter GF/C (manufactured by Whatman) treated with 1% polyethyleneimine. After the glass filter was washed with the assay buffer containing 0.2% bovine serum albumin, the radioactivity on the glass filter was measured using a liquid scintillation counter (TRI-CARB 2700TR, manufactured by Packard). The binding amount in the presence of 10 μmol/L […] (manufactured by Tocris) ((R)-(+)-[2,3-dihydro-5-methyl-3-(4-morpholinylmethyl)pyrrolo[1,2,3-de]-1,4-benzoxazin-6-yl]-1-naphthalenylmethanone) was considered to be a non-specific binding amount, and a difference between the total binding amount and the non-specific binding amount was considered to be a specific binding amount. The 50% inhibitory concentration (IC50 value) of the test compound against the specific binding was obtained, and the Ki value of the test substance was calculated from the 50% inhibitory concentration and the Kd value of the [^3H]CP55940 binding.

human CB2 receptor = target: T2, human CB2 receptor (Homo sapiens, UniProt P34972); assay: GTPγS binding experiment via human CB2 receptor (membrane fraction of CHO-K1 cells); format: biochemical; conditions: for Emax: read-out: Emax value (maximum effect of CP55940 as 100%)
T2 construct: expressed in transfected cells
T2 sequence (P34972 whole entry): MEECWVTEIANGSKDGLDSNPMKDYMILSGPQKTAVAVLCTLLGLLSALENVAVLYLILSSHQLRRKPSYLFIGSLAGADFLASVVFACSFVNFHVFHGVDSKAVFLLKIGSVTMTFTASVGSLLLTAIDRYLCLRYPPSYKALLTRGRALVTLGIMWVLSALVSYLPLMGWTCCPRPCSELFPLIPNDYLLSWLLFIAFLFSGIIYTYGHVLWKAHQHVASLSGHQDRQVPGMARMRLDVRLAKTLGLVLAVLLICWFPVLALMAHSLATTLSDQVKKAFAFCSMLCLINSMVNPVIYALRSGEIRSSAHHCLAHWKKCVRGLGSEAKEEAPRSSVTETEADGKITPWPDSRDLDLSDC
Description: A test was carried out according to the method of Hillard et al. [The Journal of Pharmacology and Experimental Therapeutics, vol. 289, p. 1427 (1999)]. As for a membrane specimen, a membrane fraction was prepared from CHO-K1 cells in which a human CB2 receptor [Nature, vol. 365, pp. 61-65 (1993)] was stably expressed and used. The membrane specimen (final concentration: 40 μg of protein/mL) was incubated together with a test compound and [^35S]GTPγS (manufactured by PerkinElmer) (final concentration: 0.05 nmol/L) in an assay buffer (50 mmol/L Tris-HCl buffer (pH 7.4), 100 mmol/L NaCl, 1 mmol/L EDTA, 3 mmol/L MgCl2, and 0.1% bovine serum albumin) containing 20 μmol/L guanosine 5′-diphosphate (GDP) at 30° C. for 1 hour, and the resulting mixture was filtered using a glass filter GF/B (manufactured by Whatman). After the glass filter was washed with the assay buffer, the radioactivity on the glass filter was measured using a liquid scintillation counter (TRI-CARB 2700TR, manufactured by Packard). The binding amount in the presence of 10 μmol/L GTPγS was considered to be a non-specific binding amount, and a difference between the total binding amount and the non-specific binding amount was considered to be a specific binding amount. The ratio of increase in the specific binding amount in the presence of the test compound to the specific binding amount in the absence of the test compound was considered to be an agonistic activity of the test compound. The concentration of the test compound that produces 50% of the maximum effect (EC50 value) was calculated by performing a nonlinear regression analysis using the concentration-response data. The percentage of the maximum effect of the test compound (Emax value) was calculated by considering the maximum effect of CP55940 (manufactured by Tocris) measured at the same time as 100%.

[1] = test system: rats with chronic constriction nerve injury; assay: Analgesic effect in rats with chronic constriction nerve injury (von Frey filament); format: in vivo, rat; conditions: oral, dose of 50 mg/kg or less, one hour after administration, von Frey filaments
Excerpt: Rats with chronic constriction nerve injury were produced by partially modifying the method of Mosconi and Kruger et al. (Pain, vol. 64, pp. 37-57 (1996))
Male Crl:CD(SD) rats were used for the experiments. Under pentobarbital anesthesia, the sciatic nerve of the left hind limb of the rat was exfoliated, and the exfoliated region was wrapped with a polyethylene tube (trade name: Intramedic, size: PE-60, manufactured by Becton Dickinson and Company) of 2 mm in length. On days 14 to 21 after the surgery, the rats were placed in an acrylic connected cage with a wire mesh floor (900 mm (length)×210 mm (depth)×140 mm (height)) consisting of 4 cages connected in a row and allowed to acclimate to the environment for at least 20 minutes, and then, the pain was evaluated.
The von Frey filament (trade name: touch test sensory evaluator, Model number: model 58011, manufactured by Muromachi Kikai) was used to evaluate pain, and the results were calculated as a pain threshold. That is, by using a von Frey filament of different stimulus intensity, stimulation was given to the plantar surface of the injured side of rats with chronic constriction nerve injury, and the stimulus intensity to cause paw withdrawal response was obtained. Then, the 50% pain threshold (Paw withdrawal threshold) (g) was calculated by the up down method of Dixon [Annual Review of Pharmacology and Toxicology, vol. 20, pp. 441-462 (1980)].
In the evaluation of the test compound, rats with 50% pain threshold of less than 4 g were used, and the test compound was dissolved in a 0.5% aqueous methyl cellulose solution and orally administered at a dose of 5 mL/kg. One hour after the administration, the pain threshold was measured using von Frey filaments.

Row | Compound | Ki (CB2 receptor) | EC50 (human CB2 receptor) | Emax (human CB2 receptor) | 50% pain threshold (paw withdrawal threshold) [1] | Ki (CB2 receptor; rat spleen membrane, [3H]CP55940 0.5 nmol/L, 25° C., 1 hour, read-out: Ki value against the CB2 receptor)
1 | CCN(CC)C(=O)c1cc(-c2cn(CC3CCOCC3)c(C(C)(C)C)n2)ccc1Cl [Compound 65, 2-Chloro-5-(2-tert-butyl-1-(tetrahydropyran-4-ylmethyl)-1H-imidazol-4-yl)-N,N-diethylbenzamide] | < 1000 nM | < 1000 nM | > 30% | significantly increased the pain threshold | 
2 | CCN(CC)C(=O)c1cc(-c2cn(CC3CCOCC3)c(C(C)(C)C)n2)ccc1F.Cl [Compound 66, 5-(2-tert-Butyl-1-(tetrahydropyran-4-ylmethyl)-1H-imidazol-4-yl)-N,N-diethyl-2-fluorobenzamide hydrochloride] | < 1000 nM | < 1000 nM | > 30% | significantly increased the pain threshold | 
3 | CC(C)(C)c1nc(-c2cccc([N+](=O)[O-])c2)cn1CC1CCOCC1 [Compound 70, 2-tert-Butyl-4-(3-nitrophenyl)-1-(tetrahydropyran-4-ylmethyl)-1H-imidazole] | < 1000 nM | < 1000 nM | > 30% | significantly increased the pain threshold | 
4 | CCN(CC)C(=O)c1cccc(-c2cn(CC3CCOCC3)c(C(C)(C)C)n2)c1.Cl [Compound 76, 3-(2-tert-Butyl-1-(tetrahydropyran-4-ylmethyl)-1H-imidazol-4-yl)-N,N-diethylbenzamide hydrochloride] | < 1000 nM | < 1000 nM | > 30% | significantly increased the pain threshold | 
5 | CCN(C)C(=O)c1cccc(-c2cn(CC3CCOCC3)c(C(C)(C)C)n2)c1.Cl [Compound 83, 3-(2-tert-Butyl-1-(tetrahydropyran-4-ylmethyl)-1H-imidazol-4-yl)-N-ethyl-N-methylbenzamide hydrochloride] | < 1000 nM | < 1000 nM | > 30% | significantly increased the pain threshold | 
6 | CCN(CC)C(=O)c1cncc(-c2cn(CC3CCOCC3)c(C(C)(C)C)n2)c1 [Compound 85, 5-(2-tert-Butyl-1-(tetrahydropyran-4-ylmethyl)-1H-imidazol-4-yl)-N,N-diethylnicotinamide] | < 1000 nM | < 1000 nM | > 30% | significantly increased the pain threshold | 
7 | CCN(C)C(=O)c1cc(-c2cn(CC3CCOCC3)c(C(C)(C)C)n2)cs1 [Compound 102, 4-[2-tert-Butyl-1-(tetrahydropyran-4-ylmethyl)-1H-imidazol-4-yl]-N-ethyl-N-methylthiophene-2-carboxamide] | < 1000 nM | < 1000 nM | > 30% | significantly increased the pain threshold | 
8 | CCN(CC)C(=O)c1cncc(-c2cn(CC3CCOCC3)c(C(C)(C)C)n2)n1 [Compound 143, 6-[2-tert-Butyl-1-(tetrahydropyran-4-ylmethyl)-1H-imidazol-4-yl]-N,N-diethylpyrazine-2-carboxamide] |  | < 1000 nM | > 30% | significantly increased the pain threshold | < 1000 nM
9 | CCCN(C)C(=O)c1cncc(-c2cn(CC3CCOCC3)c(C(C)(C)C)n2)n1 [Compound 144, 6-[2-tert-Butyl-1-(tetrahydropyran-4-ylmethyl)-1H-imidazol-4-yl]-N-methyl-N-propylpyrazine-2-carboxamide] | < 1000 nM | < 1000 nM | > 30% | significantly increased the pain threshold | 
10 | CCN(C)C(=O)c1cncc(-c2cn(CC3CCOCC3)c(C(C)(C)C)n2)n1 [Compound 146, 6-[2-tert-Butyl-1-(tetrahydropyran-4-ylmethyl)-1H-imidazol-4-yl]-N-ethyl-N-methylpyrazine-2-carboxamide] | < 1000 nM | < 1000 nM | > 30% | significantly increased the pain threshold | 
11 | CN(C)C(=O)c1cncc(-c2cn(CC3CCOCC3)c(C(C)(C)C)n2)n1 [Compound 153, 6-[2-tert-Butyl-1-(tetrahydropyran-4-ylmethyl)-1H-imidazol-4-yl]-N,N-dimethylpyrazine-2-carboxamide] | < 1000 nM | < 1000 nM | > 30% | significantly increased the pain threshold | 
12 | CCN(C)C(=O)c1cncc(-c2cn(CC3(F)CCOCC3)c(C(C)(C)C)n2)n1 [Compound 185, 6-[2-tert-Butyl-1-(4-fluorotetrahydropyran-4-ylmethyl)-1H-imidazol-4-yl]-N-ethyl-N-methylpyrazine-2-carboxamide] | < 1000 nM | < 1000 nM | > 30% | significantly increased the pain threshold | 
13 | CN(C)C(=O)c1cncc(-c2cn(CC3(F)CCOCC3)c(C(C)(C)C)n2)n1 [Compound 186, 6-[2-tert-Butyl-1-(4-fluorotetrahydropyran-4-ylmethyl)-1H-imidazol-4-yl]-N,N-dimethylpyrazine-2-carboxamide] | < 1000 nM | < 1000 nM | > 30% | significantly increased the pain threshold | 
14 | CN(CC(F)(F)F)C(=O)c1cc(-c2cn(CC3CCOCC3)c(C(C)(C)C)n2)on1 [Compound 204, 5-[2-tert-Butyl-1-(tetrahydropyran-4-ylmethyl)-1H-imidazol-4-yl]-N-methyl-N-(2,2,2-trifluoroethyl)isoxazole-3-carboxamide] | < 1000 nM | < 1000 nM | > 30% | significantly increased the pain threshold | 
